Test results as given in patent US9090628B2, “Benzoxazepin compounds selective for PI3K P110 delta and methods of use” (GENENTECH, INC., priority 2011, dated 2015).

Tests used:
[1] = molecular target: p110 delta (Homo sapiens (Human), UniProt O00329); experiment: PI3K isoform inhibition assay, p110 delta (fluorescence polarization displacement); type: biochemical
Experimental: (§1) PI3K enzymatic activity was assayed by measuring the amount of product phosphatidylinositol 3,4,5-phosphate (PIP3) formed from substrate 4,5 phosphatidylinositol 4,5-phosphate (PIP2) using a fluorescence polarization displacement assay. The decrease in fluorescence polarization of a fluorescent PIP3 probe is measured as it is displaced from a PIP3-binding protein GRP-1 detector by PI3K-catalyzed product. […] The kinase reactions were initiated by the addition of 40 ng/mL p110α/p85α, 300 ng/mL p110β/p85α, 40 ng/mL p110γ, or 40 ng/mL p110δ/p85α (Upstate Group, Millipore; Dundee, UK), and 10 μM PIP2 (Echelon Biosciences) to the wells. […] After 60 minutes of incubation at room temperature to allow equilibration of labeled and unlabeled PIP3 binding, the parallel and perpendicular components of the fluorescence emissions from each sample were measured at an excitation wavelength of 530 nm and an emission wavelength of 590 nm using an Envision fluorescent plate reader with a rhodamine filter (PerkinElmer Life and Analytical Sciences; Wellesley, Mass.). The assay is capable of detecting 0.1-2.0 μM PIP3 product. The IC50 values were obtained by fitting the dose-dependent inhibition data to a 4-parameter equation using Assay Explorer software (MDL, San Ramon, Calif.).
The Formula I compound was serially diluted in 100% DMSO. The kinase reaction was incubated for 1 h at room temperature, and the reaction was terminated by the addition of PBS. IC50 values were subsequently determined using sigmoidal dose-response curve fit (variable slope).
(§2) The four Class I PI 3-kinases are cloned into baculovirus vectors as follows: […]

[2] = molecular target: p110 alpha (Homo sapiens (Human), UniProt P42336); experiment: PI3K isoform inhibition assay, p110 alpha (for alpha/delta selectivity); settings: ratio of biochemical IC50 values
p110 alpha, sequence (P42336 whole entry, canonical isoform): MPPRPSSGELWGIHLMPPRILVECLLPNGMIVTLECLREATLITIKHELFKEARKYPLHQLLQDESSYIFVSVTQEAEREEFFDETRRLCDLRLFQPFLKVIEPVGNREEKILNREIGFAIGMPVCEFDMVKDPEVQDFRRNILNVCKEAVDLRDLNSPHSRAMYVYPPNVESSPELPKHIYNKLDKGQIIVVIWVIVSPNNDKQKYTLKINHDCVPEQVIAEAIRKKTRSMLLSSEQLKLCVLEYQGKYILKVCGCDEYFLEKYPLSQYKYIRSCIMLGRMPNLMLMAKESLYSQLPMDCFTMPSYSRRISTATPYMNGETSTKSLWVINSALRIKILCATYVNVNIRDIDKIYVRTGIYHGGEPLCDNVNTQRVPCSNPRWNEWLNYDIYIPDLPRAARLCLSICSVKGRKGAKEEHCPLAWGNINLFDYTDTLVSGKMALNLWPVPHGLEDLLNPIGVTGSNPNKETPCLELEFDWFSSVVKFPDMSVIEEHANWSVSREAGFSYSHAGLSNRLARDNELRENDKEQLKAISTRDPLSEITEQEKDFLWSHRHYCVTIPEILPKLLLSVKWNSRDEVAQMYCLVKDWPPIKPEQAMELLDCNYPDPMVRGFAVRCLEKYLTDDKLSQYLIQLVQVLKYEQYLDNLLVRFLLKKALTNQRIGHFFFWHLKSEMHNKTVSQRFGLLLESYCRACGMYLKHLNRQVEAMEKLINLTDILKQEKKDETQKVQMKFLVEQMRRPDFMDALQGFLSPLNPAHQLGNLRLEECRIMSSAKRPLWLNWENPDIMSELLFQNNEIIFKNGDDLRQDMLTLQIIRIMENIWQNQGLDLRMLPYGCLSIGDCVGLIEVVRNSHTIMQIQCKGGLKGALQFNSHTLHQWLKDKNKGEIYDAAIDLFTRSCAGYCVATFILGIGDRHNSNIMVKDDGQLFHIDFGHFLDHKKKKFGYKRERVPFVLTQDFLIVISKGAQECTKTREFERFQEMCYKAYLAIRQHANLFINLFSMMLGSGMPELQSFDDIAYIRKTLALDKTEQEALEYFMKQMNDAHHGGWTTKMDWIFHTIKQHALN
p110 alpha, sequence (P27986 whole entry partner, canonical isoform): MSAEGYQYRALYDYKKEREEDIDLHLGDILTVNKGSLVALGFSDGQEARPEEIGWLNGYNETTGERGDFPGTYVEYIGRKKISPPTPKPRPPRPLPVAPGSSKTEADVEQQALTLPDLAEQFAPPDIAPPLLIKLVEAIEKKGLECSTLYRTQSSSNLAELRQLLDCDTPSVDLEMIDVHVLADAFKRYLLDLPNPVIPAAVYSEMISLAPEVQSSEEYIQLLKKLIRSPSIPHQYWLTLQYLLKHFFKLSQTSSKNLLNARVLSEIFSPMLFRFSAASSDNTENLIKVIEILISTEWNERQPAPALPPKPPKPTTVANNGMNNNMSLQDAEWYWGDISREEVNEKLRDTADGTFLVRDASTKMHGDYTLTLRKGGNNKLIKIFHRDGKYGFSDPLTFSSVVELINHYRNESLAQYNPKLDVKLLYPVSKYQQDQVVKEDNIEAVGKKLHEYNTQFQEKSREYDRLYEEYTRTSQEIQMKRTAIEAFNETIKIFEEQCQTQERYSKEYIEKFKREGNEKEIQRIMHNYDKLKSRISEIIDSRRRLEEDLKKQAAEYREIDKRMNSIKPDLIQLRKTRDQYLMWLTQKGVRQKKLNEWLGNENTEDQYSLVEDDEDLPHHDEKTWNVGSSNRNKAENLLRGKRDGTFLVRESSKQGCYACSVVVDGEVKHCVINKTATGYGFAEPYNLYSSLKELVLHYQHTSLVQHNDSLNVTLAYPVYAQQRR
Experimental: as §1
The same protocol may be used to establish IC50 values for p110α (alpha) PI3K binding.
as §2

p110 delta, sequence (O00329 whole entry, canonical isoform): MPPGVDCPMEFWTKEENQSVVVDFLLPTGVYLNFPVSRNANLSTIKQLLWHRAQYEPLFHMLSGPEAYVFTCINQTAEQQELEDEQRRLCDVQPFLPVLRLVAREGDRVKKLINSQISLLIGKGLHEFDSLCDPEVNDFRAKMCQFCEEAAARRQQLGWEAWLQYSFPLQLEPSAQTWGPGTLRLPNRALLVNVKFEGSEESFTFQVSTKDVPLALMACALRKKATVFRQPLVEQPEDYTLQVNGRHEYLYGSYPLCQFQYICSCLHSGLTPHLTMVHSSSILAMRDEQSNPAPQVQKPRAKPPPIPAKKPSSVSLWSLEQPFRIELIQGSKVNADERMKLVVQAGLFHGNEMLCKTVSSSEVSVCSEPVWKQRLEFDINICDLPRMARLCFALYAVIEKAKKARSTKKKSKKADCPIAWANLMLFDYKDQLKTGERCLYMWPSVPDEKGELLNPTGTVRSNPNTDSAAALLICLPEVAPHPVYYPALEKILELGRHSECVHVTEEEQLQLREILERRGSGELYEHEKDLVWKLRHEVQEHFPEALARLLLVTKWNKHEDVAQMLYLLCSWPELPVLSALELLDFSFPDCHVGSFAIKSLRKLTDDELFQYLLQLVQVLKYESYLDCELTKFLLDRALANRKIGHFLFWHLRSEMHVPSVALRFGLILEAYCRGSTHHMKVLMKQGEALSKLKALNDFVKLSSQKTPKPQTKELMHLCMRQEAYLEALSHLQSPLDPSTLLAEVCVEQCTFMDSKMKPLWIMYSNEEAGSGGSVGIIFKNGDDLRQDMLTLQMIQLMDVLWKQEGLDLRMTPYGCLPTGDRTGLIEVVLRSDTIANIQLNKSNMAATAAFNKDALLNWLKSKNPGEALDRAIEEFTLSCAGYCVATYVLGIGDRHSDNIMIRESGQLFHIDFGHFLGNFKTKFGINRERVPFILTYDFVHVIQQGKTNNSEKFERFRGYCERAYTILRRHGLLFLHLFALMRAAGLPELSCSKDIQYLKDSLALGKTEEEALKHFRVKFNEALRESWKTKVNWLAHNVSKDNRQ
p110 delta, sequence (P27986 whole entry partner, canonical isoform): as the sequence (P27986 whole entry partner, canonical isoform) above

IC50 [1] | IC50 p110 alpha/IC50 p110 delta [2] | Compound
1.06 nM | 31.5 | Cc1nc(-c2cn3c(n2)-c2ccc(-c4ccnn4C4CCN(C(C)C)CC4)cc2OCC3)n(C(C)C)n1 [Example 296, 2-(2-isopropyl-5-methyl-1,2,4-triazol-3-yl)-9-[2-(1-isopropyl-4-piperidyl)pyrazol-3-yl]-5,6-dihydroimidazo[1,2-d][1,4]benzoxazepine]
0.771 nM | 71.1 | CCN(CC)C1CCOC(c2c(-c3ccc4c(c3)OCCn3cc(-c5nc(C)nn5C(C)C)nc3-4)cnn2C)C1 (centres unmarked) [Example 341, N,N-diethyl-2-[4-[2-(2-isopropyl-5-methyl-1,2,4-triazol-3-yl)-5,6-dihydroimidazo[1,2-d][1,4]benzoxazepin-9-yl]-2-methyl-pyrazol-3-yl]tetrahydropyran-4-amine]
1.3 nM | 76.9 | Cc1nc(-c2cn3c(n2)-c2ccc(-c4ccnn4C4CC(C)N(C)C(C)C4)cc2OCC3)n(C(C)C)n1 (centres unmarked) [Example 282, 2-(2-isopropyl-5-methyl-1,2,4-triazol-3-yl)-9-[2-(1,2,6-trimethyl-4-piperidyl)pyrazol-3-yl]-5,6-dihydroimidazo[1,2-d][1,4]benzoxazepine]
14 nM | 17.3 | CC(C)n1ncnc1-c1cn2c(n1)-c1ccc(-c3ccccc3S(N)(=O)=O)cc1OCC2 [Example 109, 2-(2-(1-isopropyl-1H-1,2,4-triazol-5-yl)-5,6-dihydrobenzo[f]imidazo[1,2-d][1,4]oxazepin-9-yl)benzenesulfonamide]
0.972 nM | 23.6 | Cc1nc(-c2cn3c(n2)-c2ccc(-c4cn[nH]c4C4CCCN(C(C)C)C4)cc2OCC3)n(C(C)C)n1 (centres unmarked) [Example 361, 2-(2-isopropyl-5-methyl-1,2,4-triazol-3-yl)-9-[5-(1-isopropyl-3-piperidyl)-1H-pyrazol-4-yl]-5,6-dihydroimidazo[1,2-d][1,4]benzoxazepine]
0.288 nM | 23 | Cc1nc(-c2cn3c(n2)-c2ccc(N4CCCC4CN(C)C)cc2OCC3)n(C(C)C)n1 (centres unmarked) [Example 346, 1-[1-[2-(2-isopropyl-5-methyl-1,2,4-triazol-3-yl)-5,6-dihydroimidazo[1,2-d][1,4]benzoxazepin-9-yl]pyrrolidin-2-yl]-N,N-dimethyl-methanamine]
2.42 nM | 15.9 | CC(C)n1nc(CO)nc1-c1cn2c(n1)-c1ccc(-c3ccnn3C3CCN(C)CC3)cc1OCC2 [Example 290, [1-isopropyl-5-[9-[2-(1-methyl-4-piperidyl)pyrazol-3-yl]-5,6-dihydroimidazo[1,2-d][1,4]benzoxazepin-2-yl]-1,2,4-triazol-3-yl]methanol]
< 0.035 nM | 172 | Cc1nc(-c2cn3c(n2)-c2ccc(-c4cnn(C)c4C4CN(C(C)C)CCN4C)cc2OCC3)n(C(C)C)n1 (centres unmarked) [Example 366, 9-[5-(4-isopropyl-1-methyl-piperazin-2-yl)-1-methyl-pyrazol-4-yl]-2-(2-isopropyl-5-methyl-1,2,4-triazol-3-yl)-5,6-dihydroimidazo[1,2-d][1,4]benzoxazepine]
3.31 nM | 26.1 | Cc1nc(-c2cn3c(n2)-c2ccc(OC4(CN5CCN(C)CC5)CC4)cc2OCC3)n(C(C)C)n1 [Example 259, 2-(1-isopropyl-3-methyl-1H-1,2,4-triazol-5-yl)-9-(1-((4-methylpiperazin-1-yl)methyl)cyclopropoxy)-5,6-dihydrobenzo[f]imidazo[1,2-d][1,4]oxazepine]
5.68 nM | 31.9 | Cc1nc(-c2cn3c(n2)-c2ccc(N4CCCC4C4CCCN(C)C4)cc2OCC3)n(C(C)C)n1 (centres unmarked) [Example 322, 2-(2-isopropyl-5-methyl-1,2,4-triazol-3-yl)-9-[2-(1-methyl-3-piperidyl)pyrrolidin-1-yl]-5,6-dihydroimidazo[1,2-d][1,4]benzoxazepine]

More lines, now with the values behind:

Compound | IC50 [1] | IC50 p110 alpha/IC50 p110 delta [2]
Cc1nc(-c2cn3c(n2)-c2cc(C(C)N4CCN(C)CC4)c(F)cc2OCC3)n(C(C)C)n1 (centres unmarked) [Example 373, 9-fluoro-2-(2-isopropyl-5-methyl-1,2,4-triazol-3-yl)-10-[1-(4-methylpiperazin-1-yl)ethyl]-5,6-dihydroimidazo[1,2-d][1,4]benzoxazepine] | 3.13 nM | 15.7
Cc1nc(-c2cn3c(n2)-c2cnc(-c4cnn(C)c4C4CCCN(C(C)C)C4)cc2OCC3)n(C(C)C)n1 (centres unmarked) [Example 370, 2-(1-isopropyl-3-methyl-1H-1,2,4-triazol-5-yl)-9-(5-(1-isopropylpiperidin-3-yl)-1-methyl-1H-pyrazol-4-yl)-5,6-dihydroimidazo[1,2-d]pyrido[3,4-f][1,4]oxazepine] | 0.571 nM | 16.1
Cc1nc(-c2cn3c(n2)-c2cc(-c4ccnn4[C@@H]4CCCN(C5COC5)C4)c(F)cc2OCC3)n(C(C)C)n1 [Example 351, (R)-9-fluoro-2-(1-isopropyl-3-methyl-1H-1,2,4-triazol-5-yl)-10-(1-(1-(oxetan-3-yl)piperidin-3-yl)-1H-pyrazol-5-yl)-5,6-dihydrobenzo[f]imidazo[1,2-d][1,4]oxazepine] | 2.21 nM | 16.6
Cc1nc(-c2cn3c(n2)-c2cc(C(=O)N4CCN(C(C)(C)CO)CC4)c(F)cc2OCC3)n(C(C)C)n1 [Example 281, [9-fluoro-2-(2-isopropyl-5-methyl-1,2,4-triazol-3-yl)-5,6-dihydroimidazo[1,2-d][1,4]benzoxazepin-10-yl]-[4-(2-hydroxy-1,1-dimethyl-ethyl)piperazin-1-yl]methanone] | 5.63 nM | 30.6
COc1cc2c(cc1[C@H](C)N1CCN(C(C)(C)C)CC1)-c1nc(-c3nc(C)nn3C(C)C)cn1CCO2 [Example 357, (S)-10-(1-(4-tert-butylpiperazin-1-yl)ethyl)-2-(1-isopropyl-3-methyl-1H-1,2,4-triazol-5-yl)-9-methoxy-5,6-dihydrobenzo[f]imidazo[1,2-d][1,4]oxazepine] | 0.784 nM | 116
Cc1nc(-c2cn3c(n2)-c2cc([C@H](C)N4CCN(C(C)(C)C)CC4)c(F)cc2OCC3)n(C(C)C)n1 [Example 297, (S)-10-(1-(4-tert-butylpiperazin-1-yl)ethyl)-9-fluoro-2-(1-isopropyl-3-methyl-1H-1,2,4-triazol-5-yl)-5,6-dihydrobenzo[f]imidazo[1,2-d][1,4]oxazepine] | 2.42 nM | 102
Cc1nc(-c2cn3c(n2)-c2cc([C@H](C)N4CCN(C(C)C)CC4)c(F)cc2OCC3)n(C(C)C)n1 [Example 340, (S)-9-fluoro-2-(1-isopropyl-3-methyl-1H-1,2,4-triazol-5-yl)-10-(1-(4-isopropylpiperazin-1-yl)ethyl)-5,6-dihydrobenzo[f]imidazo[1,2-d][1,4]oxazepine] | 2.32 nM | 25.8
Cc1nc(-c2cn3c(n2)-c2cc([C@@H](C)N4CCN(C(C)(C)C)CC4)ncc2OCC3)n(C(C)C)n1 [Example 305, (R)-10-(1-(4-tert-butylpiperazin-1-yl)ethyl)-2-(1-isopropyl-3-methyl-1H-1,2,4-triazol-5-yl)-5,6-dihydroimidazo[1,2-d]pyrido[4,3-f][1,4]oxazepine] | 2.81 nM | 28.6
Cc1nc(-c2cn3c(n2)-c2cc(C(C)N4CCN(CC(C)(C)O)CC4)c(C)cc2OCC3)n(C(C)C)n1 (centres unmarked) [Example 349, 1-[4-[1-[2-(2-isopropyl-5-methyl-1,2,4-triazol-3-yl)-9-methyl-5,6-dihydroimidazo[1,2-d][1,4]benzoxazepin-l0-yl]ethyl]piperazin-1-yl]-2-methyl-propan-2-ol] | 4.21 nM | 18.1
Cc1nc(-c2cn3c(n2)-c2cc([C@H](C)N4CCN(CC(C)(C)O)CC4)c(F)cc2OCC3)n(C(C)C)n1 [Example 336, (S)-1-(4-(1-(9-fluoro-2-(1-isopropyl-3-methyl-1H-1,2,4-triazol-5-yl)-5,6-dihydrobenzo[f]imidazo[1,2-d][1,4]oxazepin-10-yl)ethyl)piperazin-1-yl)-2-methylpropan-2-ol] | 26.8 nM | 27
Cc1nc(-c2cn3c(n2)-c2cc(-c4ccnn4C4CCCN(C(C)(C)CO)C4)c(F)cc2OCC3)n(C(C)C)n1 [Example 355, (R)-2-(3-(5-(9-fluoro-2-(1-isopropyl-3-methyl-1H-1,2,4-triazol-5-yl)-5,6-dihydrobenzo[f]imidazo[1,2-d][1,4]oxazepin-10-yl)-1H-pyrazol-1-yl)piperidin-1-yl)-2-methylpropan-1-ol] | 0.415 nM | 46.4
Cc1nc(-c2cn3c(n2)-c2cc([C@@H](C)N4CCN(C(C)C)CC4)c(F)cc2OCC3)n(C(C)C)n1 [Example 338, (R)-9-fluoro-2-(1-isopropyl-3-methyl-1H-1,2,4-triazol-5-yl)-10-(1-(4-isopropylpiperazin-1-yl)ethyl)-5,6-dihydrobenzo[f]imidazo[1,2-d][1,4]oxazepine] | 1.48 nM | 114
